Target: T1, Sodium/potassium/calcium exchanger 4 (Homo sapiens, UniProt Q8NFF2)
T1 sequence (Q8NFF2 whole entry): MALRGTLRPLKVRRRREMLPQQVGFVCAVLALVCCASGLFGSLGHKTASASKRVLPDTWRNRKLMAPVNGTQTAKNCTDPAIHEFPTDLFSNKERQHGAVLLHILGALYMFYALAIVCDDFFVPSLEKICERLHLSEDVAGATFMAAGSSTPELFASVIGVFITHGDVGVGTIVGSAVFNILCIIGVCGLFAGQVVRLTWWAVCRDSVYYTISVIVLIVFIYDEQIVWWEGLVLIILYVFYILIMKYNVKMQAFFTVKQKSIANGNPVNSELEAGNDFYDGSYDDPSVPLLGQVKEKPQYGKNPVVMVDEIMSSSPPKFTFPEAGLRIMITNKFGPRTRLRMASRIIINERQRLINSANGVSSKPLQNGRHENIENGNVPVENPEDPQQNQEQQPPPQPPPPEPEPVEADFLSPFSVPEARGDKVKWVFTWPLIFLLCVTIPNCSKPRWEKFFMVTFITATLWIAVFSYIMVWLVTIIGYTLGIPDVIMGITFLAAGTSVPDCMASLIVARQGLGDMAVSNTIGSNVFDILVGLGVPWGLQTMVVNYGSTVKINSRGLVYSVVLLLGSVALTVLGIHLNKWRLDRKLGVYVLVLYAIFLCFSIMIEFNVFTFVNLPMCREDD
Assay: Substrate uptake by the Sodium/Potassium/Calcium Exchanger 4 (NCKX4, SLC24A4) as assessed by Screen Questtrade mark Fluo-8 NW calcium assay kit in HEK-293 JumpIN-SLC24A4 cells (PubChem AID: 1794814)
Format: functional, cell-based, HEK293

Work on `[Cl-].[K+]` [POTASSIUM CHLORIDE] yielded an EC50 of 174 mM.

From ChEMBL document CHEMBL5209574, “Fluo-8 based assay for SLC24A4 using HEK293 JumpIn SLC24A4 OE cells” (2022)
